Test results: patent US5173500A, “Pharmaceutical compositions and methods of sulphonamides containing a tetrazolyl radical” (Boehringer Mannheim GmbH, priority 1988, dated 1992)

Legend:
[1] = system: Male NMRI mice challenged with lethal dose of U 46619; assay: Survival of mice after lethal i.v. injection of thromboxane mimetic U 46619; format: in vivo; details: Mus musculus, iv, lethal dose U 46619 (800-1000 ug/kg) i.v. after 4 hours; for responders at 1 mg/kg: 1 mg/kg by stomach tube in 1% methylcellulose, read-out: Survival Rate of Mouse 1 mg/kg, 4 h in %; for responders at 25 mg/kg: 25 mg/kg by stomach tube in 1% methylcellulose, read-out: Survival Rate of Mouse 25 mg/kg, 4 h in %
Procedure: Male NMRI mice, with a body weight of 25 g, were used. The test substance was suspended in 1% methylcellulose and administered to the experimental animals with the aid of a stomach tube. The provacation test consisted of injecting a lethal dose (800-1000/ug/kg) of the thromboxane mimetic (U 46619, Upjohn Co.) rapidly into the tail vein. The duration of the specific antagonistic effect was tested by pretreating the animals with 25 or 1 mg/kg of the different test substances and injecting U 46619 after 4 hours. The survival rate indicates how many of the animals which were used survived the injection of the thromboxane mimetic.

[2] = system: thrombocyte aggregation induced by thromboxane mimetic U 46619 (TX antagonistic effect); assay: Thrombocyte aggregation induced by U 46619 in platelet-rich plasma (method of Born and Cross); format: cell-based; details: Homo sapiens, 5 min; platelet-rich plasma of healthy blood donors; aggregation induced by U 46619, followed over 5 minutes
Description: Thrombocyte aggregation was investigated by the method of Born to Cross (J. Physiol. 168, 178 (1963)) in platelet-rich plasma of healthy blood donors. To inhibit clotting, the blood was mixed with 3.2% citrate in a ration by volume 1:9.
To induce thrombocyte aggregation, U 46619 (Upjohn & Co., Kalamazoo, Mich., USA), which is a stable analog of the prostagladin endoperoxide PHG2, was used. U 46619 has been characterized as a selective thromboxane mimetic (Coleman et al., Brit. J. Pharmacol. 68, 127 P., 1980).
The aggregation test was carried out in a 4-channel aggregometer (Profiler®, of the Bio/Data Co., USA). The course of the aggregation was followed over a period of 5 minutes. At the end of the test, the degree of aggregation attained was printed out. These values, which were obtained in the presence of different concentrations of the substance being tested, were used for the determination of the IC50 value for the TX antagonistic effect. The effectiveness varies inversely with the IC50 value.

Compound	responders at 1 mg/kg [1]	responders at 25 mg/kg [1]	IC50 [2]
O=C(CCC(=O)c1ccc(CCNS(=O)(=O)c2ccc(Br)cc2)cc1)Nc1nnn[nH]1 [6/III, 4-Oxo-4-{4-[2-(4-bromobenzenesulphonamido)-ethyl]-phenyl}-butyric acid (1H-tetrazol-5-yl)-amide]	100%	100%	55 µM
O=C(COc1cccc(CCNS(=O)(=O)c2ccc(Cl)cc2)c1)Nc1nnn[nH]1 [Example 2, 3-[2-(4-Chlorobenzenesulphonamido)-ethyl]-phenoxyacetic acid (1H-tetrazol-5-yl)-amide]	100%	100%	6 µM
O=S(=O)(NCCc1ccc(Nc2nnn[nH]2)cc1)c1ccc(Cl)cc1 [Example 3, 4-[2-(4-Chlorobenzenesulphonamido)-ethyl]-N-(1H-tetrazole-5-yl)-aniline]	20%	100%	0.2 µM
O=C(COc1ccc(CCNS(=O)(=O)c2ccc(Cl)cc2)cc1)Nc1nnn[nH]1 [Example 4, 4-[2-(4-Chlorobenzenesulphonamido)-ethyl]-phenoxyacetic acid (1H-tetrazol-5-yl)-amide]	80%	100%	9 µM
O=C(Cc1ccc(CCNS(=O)(=O)c2ccc(Cl)cc2)cc1)Nc1nnn[nH]1 [Example 5, 4-[2-(4-Chlorobenzenesulphonamido)-ethyl]-phenylacetic acid (1H-tetrazol-5-yl)-amide]	80%	100%	0.9 µM
O=S(=O)(NCCc1ccc(Cc2nnn[nH]2)cc1)c1ccc(Cl)cc1 [Example 8, 5-{4-[2-(4-Chlorobenzenesulphonamido)-ethyl]-phenyl-methyl}-1H-tetrazole]	100%	100%	0.07 µM
Cc1ccc(S(=O)(=O)NCCc2cccc(OCC(=O)Nc3nnn[nH]3)c2)cc1 [Example 15, 3-[2-(4-Methylbenzenesulphonamido)-ethyl]-phenoxyacetic acid (1H-tetrazol-5-yl)-amide]	100%	100%	24 µM
O=C(COc1cccc(CCNS(=O)(=O)c2ccccc2Cl)c1)Nc1nnn[nH]1 [Example 16, 3-[2-(2-Chlorobenzenesulphonamido)-ethyl]-phenoxyacetic acid (1H-tetrazol-5-yl)-amide]	40%	100%	17 µM
